Results: publication PMC12138715, “Exploring Boswellia serrata Triterpenes: A New Frontier in Leukemia Inhibitory Factor Receptor Modulation” (ACS Omega, 2025)

Assays:
[1] = biological target: T1, leukemia inhibitory factor receptor (LIFR) (Homo sapiens, UniProt P42702); assay: biochemical; design: Alpha Screen inhibition of biotinylated LIF binding to His-tagged human LIFR; details: LIF/LIFR binding
T1 construct: Recombinant human LIFR (His-Tag)
Experimental: Amplified Luminescent Proximity Homogeneous Assay on LIF-LIFR Recombinant human LIFR (His-Tag) and LIF (biotinylated) were purchased from Sino Biologicals (Sino Biological Europe GmbH, Dusseldorf, Germany) and R&D Systems (Abingdon, UK), respectively, and both were reconstituted as required by the manufacturer. Inhibition of LIFR/LIF binding was measured by Alpha Screen, in white, low-volume, 384-well AlphaPlates (Revvity, Italy) using a final volume of 15 μL and an assay buffer containing 25 mM Hepes (pH 7.4), 100 mM NaCl, and 0.005% Kathon. The concentration of DMSO in each well was maintained at 5% vol/vol. LIFR (His-Tag, final concentration 4.5 nM) was incubated with either the compounds or DMSO for 45 min under continuous shaking. Then, LIF was added (biotinylated, final concentration 9 nM), and the samples were incubated for 15 min prior to adding nickel chelate acceptor beads (final concentration 20 ng/μL) for 30 min. Then, streptavidin donor beads were added (final concentration 20 ng/μL), and the plate was incubated in the dark for 2 h and then read in a Victor Nivo (Revvity, Italy) Multimode Microplate Reader.

[2] = test system: leukemia inhibitory factor receptor (LIFR); assay: cells; design: LIFR/STAT3 luciferase reporter transactivation, LIF 10 ng/mL stimulated, Renilla normalized; details: Homo sapiens, HepG2, 24 h; LIF 10 ng/mL stimulated; read-out: Transactivation Inhibition (%), 50 µM
Experimental: Luciferase Reporter Gene Assay To evaluate the LIFR/STAT3 signaling, HepG2 (HB, 8065 from ATCC), were seeded at 7.5 × 10^4 cells/well in a 24-well plate and maintained at 37 °C and 5% CO2 in E-MEM added with 10% FBS, 1% glutamine, and 1% penicillin/streptomycin. On day-1, cells were transiently transfected with the reporter plasmid pGL4.47[luc2P/SIE/Hygro] (CAT no. E4041 Promega, Madison, WI, USA), a vector encoding the hLIFR (CAT no. RC226327) and CD130 (IL6ST) (CAT no. RC215123, OriGene Technologies, Inc. Rockville, MD USA), and finally a vector encoding the human Renilla luciferase gene (pGL4.70) (Promega, Madison, WI, USA). On day-2, cells were primed with the cytokine LIF (10 ng/mL) alone or in combination with different compounds at the concentrations of 10 μM and 50 μM. Then, after 24 h, cellular lysate was assayed for luciferase and Renilla activities using the Firefly & Renilla Luciferase Single TubeAssay Kit (Biotium, Fremont, CA). Luminescence was measured using Glomax 20/20 luminometer (Promega, Madison, WI, USA). Luciferase activities were normalized with Renilla activities.

[3] = biological target: T1, leukemia inhibitory factor receptor (LIFR); assay: cell-free AlphaScreen LIF/LIFR binding inhibition
[4] = biological target: T1, leukemia inhibitory factor receptor (LIFR); assay: cell-free AlphaScreen LIF/LIFR binding inhibition; LIFR transactivation in HepG2

T1 sequence (P42702 45-1097): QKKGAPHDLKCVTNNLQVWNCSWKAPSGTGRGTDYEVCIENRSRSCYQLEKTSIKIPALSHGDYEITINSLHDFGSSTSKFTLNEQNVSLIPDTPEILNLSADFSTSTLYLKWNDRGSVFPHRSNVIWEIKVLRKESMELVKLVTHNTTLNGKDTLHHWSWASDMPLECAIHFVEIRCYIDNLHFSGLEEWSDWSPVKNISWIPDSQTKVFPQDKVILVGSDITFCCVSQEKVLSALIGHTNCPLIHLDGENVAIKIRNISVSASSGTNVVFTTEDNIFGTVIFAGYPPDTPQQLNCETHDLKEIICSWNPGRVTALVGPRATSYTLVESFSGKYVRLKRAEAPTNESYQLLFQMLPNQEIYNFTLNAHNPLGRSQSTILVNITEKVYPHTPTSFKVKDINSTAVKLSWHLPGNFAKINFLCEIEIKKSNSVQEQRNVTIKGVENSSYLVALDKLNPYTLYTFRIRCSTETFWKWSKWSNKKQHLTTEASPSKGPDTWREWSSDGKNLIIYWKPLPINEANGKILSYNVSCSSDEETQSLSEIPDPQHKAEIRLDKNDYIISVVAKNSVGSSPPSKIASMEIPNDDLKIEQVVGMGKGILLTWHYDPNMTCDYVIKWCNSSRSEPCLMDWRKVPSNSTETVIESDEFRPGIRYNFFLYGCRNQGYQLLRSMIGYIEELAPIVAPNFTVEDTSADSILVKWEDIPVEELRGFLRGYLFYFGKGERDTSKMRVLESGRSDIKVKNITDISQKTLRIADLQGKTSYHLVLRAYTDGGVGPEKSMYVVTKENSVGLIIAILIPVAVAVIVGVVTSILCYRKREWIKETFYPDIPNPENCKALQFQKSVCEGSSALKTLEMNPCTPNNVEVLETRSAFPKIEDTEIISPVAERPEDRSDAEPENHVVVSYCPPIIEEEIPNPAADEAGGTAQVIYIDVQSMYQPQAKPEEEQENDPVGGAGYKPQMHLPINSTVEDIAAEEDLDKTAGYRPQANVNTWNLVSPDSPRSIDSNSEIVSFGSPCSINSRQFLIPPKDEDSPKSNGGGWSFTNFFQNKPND
T1 sequence (P15018 23-202 partner): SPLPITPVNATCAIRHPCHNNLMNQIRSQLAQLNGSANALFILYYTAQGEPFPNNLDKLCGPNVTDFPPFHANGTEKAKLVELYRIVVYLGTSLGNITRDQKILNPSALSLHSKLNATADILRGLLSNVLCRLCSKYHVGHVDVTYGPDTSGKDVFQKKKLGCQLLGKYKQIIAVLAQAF

inhibition at 10 µM [1] [%] | inhibition at 50 µM [1] [%] | SMILES | inhibition at 50 µM [2] [%] | also measured
51.3 | 83.7 | CC1(C)CCC2(C)CCC3(C)C(=CCC4C5(C)CCC(O)C(C)(C(=O)NCC(=O)O)C5CCC43C)C2C1 (stereo not shown) [compound 22, 22] | 58.3 | 
 |  | CC(=O)O[C@@H]1CC[C@@]2(C)[C@@H](CC[C@]3(C)[C@@H]2CC=C2[C@@H]4CC(C)(C)CC[C@]4(C)CC[C@]23C)[C@@]1(C)C(=O)O [compound 3, (4R)-3α-Acetylolean-12-en-24-oic Acid] |  | IC50 ([3]; read-out: IC50): < 10 µM
 |  | CC(C)=CCC[C@H](C(=O)O)[C@@H]1CC[C@]2(C)C3=C(CC[C@@]12C)[C@@]1(C)CC[C@@H](O)C(C)(C)[C@@H]1CC3 [compound 15, 3α-Hydroxytirucalla-8,24-dien-21-oic Acid] |  | IC50 [3]: < 10 µM
 |  | C[C@H]1[C@H](C)CC[C@]2(C)CC[C@]3(C)C(=CC[C@@H]4[C@@]5(C)CC[C@@H](O)[C@](C)(C(=O)O)[C@@H]5CC[C@]43C)[C@H]12 [compound 2, (4R)-3α-Hydroxyurs-12-en-24-oic Acid] |  | IC50 [4]: < 10 µM
48.7 | 86.9 | CC1CCC2(C)CCC3(C)C(=CCC4C5(C)CCC(O)C(C)(C(=O)NCC(=O)O)C5CCC43C)C2C1C (stereo not shown) [compound 24, 24] | 74.8 | 
 |  | CC(C)=CCC[C@H](C(=O)O)[C@@H]1CC[C@]2(C)C3=C(CC[C@@]12C)[C@@]1(C)CCC(=O)C(C)(C)[C@@H]1CC3 [compound 17, 3-Oxotirucalla-8,24-dien-21-oic Acid] |  | IC50 [3]: < 10 µM
52.9 | 88.5 | CC1CCC2(C)CCC3(C)C(=CCC4C5(C)CCC(O)C(C)(C(=O)NCCS(=O)(=O)O)C5CCC43C)C2C1C (stereo not shown) [compound 23, 23] | 70.2 | 
 |  | CC(=O)O[C@@H]1CC[C@@]2(C)[C@@H](CC[C@]3(C)[C@@H]2CC=C2[C@@H]4[C@@H](C)[C@H](C)CC[C@]4(C)CC[C@]23C)[C@@]1(C)C(=O)O [compound 4, (4R)-3α-Acetylurs-12-en-24-oic Acid] |  | IC50 ([3]; read-out: IC50): < 10 µM
 |  | CC1(C)CC[C@]2(C)CC[C@]3(C)C(=CC[C@@H]4[C@@]5(C)CC[C@@H](O)[C@](C)(C(=O)O)[C@@H]5CC[C@]43C)[C@@H]2C1 [compound 1, (4R)-3α-Hydroxyolean-12-en-24-oic Acid] |  | IC50 [4]: < 10 µM
45.4 | 67.7 | CC1(C)CCC2(C)CCC3(C)C(=CCC4C5(C)CCC(O)C(C)(C(=O)NCCS(=O)(=O)O)C5CCC43C)C2C1 (stereo not shown) [compound 21, 21] | 68.8 | 
 |  | CC(C)=CCC[C@H](C(=O)O)[C@@H]1CC[C@]2(C)C3=C(CC[C@@]12C)[C@@]1(C)CC[C@H](O)C(C)(C)[C@@H]1CC3 [compound 16, 3β-Hydroxytirucalla-8,24-dien-21-oic Acid] |  | IC50 [3]: < 10 µM
